Measurements from patent US6670370B1 (priority 2001, dated 2003).
Where a name gives a salt, the structure may show the parent alone. Read-outs that look alike come from different tables or passages of the source.

Columns and labels:
[1] = background statement on known substance, cited from earlier work
[2] = Solubility in water (descriptive); conditions: physical properties stated in detailed description
[3] = Tap density of milled dextromethorphan tannate powders; type: physicochemical; conditions: dried to moisture level (K.F.) of 5%, milled to particle size of about 100 mesh

## COc1ccc2c(c1)[C@]13CCCC[C@@H]1[C@H](C2)N(C)CC3 [dextromethorphan free base, 3-methoxy-17-methyl-9α, 13α, 14α-morphinan]
[1]
  solubility in water: insoluble
[2]
  solubility in water: insoluble

## COc1ccc2c(c1)[C@]13CCCC[C@@H]1[C@H](C2)N(C)CC3 [hydrobromide monohydrate salt, dextromethorphan hydrobromide monohydrate]
[1]; hydrobromide monohydrate
  solubility in water: soluble

## O=C(OC[C@H]1O[C@@H](OC(=O)c2cc(O)c(O)c(OC(=O)c3cc(O)c(O)c(O)c3)c2)[C@H](OC(=O)c2cc(O)c(O)c(OC(=O)c3cc(O)c(O)c(O)c3)c2)[C@@H](OC(=O)c2cc(O)c(O)c(OC(=O)c3cc(O)c(O)c(O)c3)c2)[C@@H]1OC(=O)c1cc(O)c(O)c(OC(=O)c2cc(O)c(O)c(O)c2)c1)c1cc(O)c(O)c(OC(=O)c2cc(O)c(O)c(O)c2)c1 [tannic acid]
[1]
  solubility in water: highly soluble

## dextromethorphan tannate [Commercially available D-M Tannate]
[3]
  Tap Density: 0.313 g/cc

## dextromethorphan tannate [D-M Tannate of the invention]
[3]
  Tap Density: 0.723 g/cc

## dextromethorphan tannate [D-M Tannate synthesized by IPA route (Example 5)]
[3]
  Tap Density: 0.321 g/cc
